{"source": "paper PMC12841663", "about": "“Antiprotozoal Potential of Cultivated Geranium macrorrhizum Against Giardia duodenalis, Trichomonas gallinae and Leishmania infantum” (International Journal of Molecular Sciences, 2026)", "key": {"[1]": {"assay": "Cytotoxicity of pure compounds on Vero cells (MTT)", "format": "cell-based", "conditions": "African green monkey", "method": "African green monkey kidney cells (Vero cells) were maintained in Dulbecco’s modified Eagle’s minimal essential medium (DMEM) (Thermo Fisher Scientific, Waltham, MA, USA) supplemented with 10% FBS and 1% Pen-Strep at 37 °C under a humidified atmosphere of 5% CO2/95% air.\nCells seeded in 96-well flat-bottom microplates with 100 μL medium per well (initial densities 10^4 cells per well) were exposed for 48 h to serial dilutions (100, 75, 50, 25, 10 and 1 µg/mL) of the tested compounds in DMSO (<1% final concentration). Cell viability was analyzed by the MTT colorimetric assay method, and the purple-colored formazan precipitate was dissolved with 100 μL of DMSO [23].\nData was analyzed using STATGRAPHICS Centurion XIX (https://www.statgraphics.com) (Statgraphics Technologies, Inc., The Plains, VA, USA). The mammalian cells and trophozoites viability were tested with each compound in a dose–response experiment to calculate their relative potency (CC50 or IC50 value, respectively). IC50 (μg/mL) expresses the dose of EOs, extracts or pure compounds needed to produce 50% mortality of trophozoites, while CC50 (μg/mL) expresses the dose of compounds necessary to produce 50% mortality of Vero cells."}, "T. gallinae trophozoites": {"test_system": "T. gallinae trophozoites", "assay": "Morphological evaluation by light microscopy (Diff-Quik), T. gallinae", "format": "cell-based, Trichomonas gallinae", "conditions": "germacrone 100 µg/mL", "excerpt": "At each time point, quadruplicates were assigned per condition: growth control, germacrone, and the corresponding positive control (metronidazole or amphotericin B). For microscopy, quadruplicate wells corresponding to the same condition/time point were pooled prior to centrifugation to obtain sufficient biomass and a representative pellet for smear preparation. Pooled samples per condition/time point were centrifuged, resuspended in FBS and spread onto microscope slides. Once dried, samples were fixed and stained with Diff-Quik (Medion Diagnostic AG, […], Switzerland) following the manufacturer's instructions. Additionally, three wells per condition (triplicates) were used for the MTT assay, with absorbance measured by spectrophotometry after 48 h. Morphological changes were analyzed using light microscopy. Experiments were performed as independent biological replicates on different plates, and one Diff-Quik stained smear was obtained per condition and time point per biological replicate. For morphometric analysis, a total of 30 trophozoites per condition and time point were measured across the independent biological replicates and were selected by consecutive sampling during a predefined serpentine (zig-zag) scan across the preparation. Up to two eligible trophozoites per field (intact, well-focused and non-overlapping) were measured in sequential fields until n = 30 was reached, avoiding subjective selection of “representative” cells. Overlapping, partially visible, out-of-focus, edge-of-field, or debris-obscured trophozoites were excluded a priori. Trophozoites were photographed using a researcher's mobile phone mounted to the microscope ocular. Calibration was performed at the same magnification using a stage micrometre and applied in ImageJ v. 1.54d. One Diff-Quik stained smear was obtained per condition/time point per biological replicate Cell length, cell width, cell surface, nuclear length, nuclear width, axoneme (only Giardia), and length of axostyle (only T. gallinae) were measured with ImageJ software, and the data were recorded in an Excel database for statistical analysis. The Shapiro-Wilk test was used to assess the normality of the morphological variables. When data followed a normal distribution, Student's t-test was applied; otherwise, non-parametric tests, such as the Mann-Whitney U test, was used. Values of p < 0.05 were considered significant. For the morphological analysis, the mean, standard deviation, median, and interquartile range were calculated using SPSS version 20 (IBM Corp., Armonk, NY, USA)."}, "[2]": {"test_system": "L. infantum promastigotes", "assay": "Morphological evaluation by light microscopy (Diff-Quik), L. infantum", "format": "cell-based, Leishmania infantum", "conditions": "germacrone 100 µg/mL", "method": "L. infantum, T. gallinae and G. duodenalis were studied at 0, and 48 h after treatment with germacrone (100 µg/mL), and controls (DMSO 1%, metronidazole at 10 µg/mL for T. gallinae and G. duodenalis and amphotericin B at 1 µg/mL for L. infantum).\nFor L. infantum and T. gallinae, cultures in the exponential growth phase (10^7 promastigotes/mL and 5 × 10^5 trophozoites/mL, respectively) were treated in 96-well microplates. At each time point, quadruplicates were assigned per condition: growth control, germacrone, and the corresponding positive control (metronidazole or amphotericin B). For microscopy, quadruplicate wells corresponding to the same condition/time point were pooled prior to centrifugation to obtain sufficient biomass and a representative pellet for smear preparation. Pooled samples per condition/time point were centrifuged, resuspended in FBS and spread onto microscope slides. Once dried, samples were fixed and stained with Diff-Quik (Medion Diagnostic AG, Düdingen, Switzerland) following the manufacturer’s instructions. Additionally, three wells per condition (triplicates) were used for the MTT assay, with absorbance measured by spectrophotometry after 48 h.\nMorphological changes were analyzed using light microscopy. Experiments were performed as independent biological replicates on different plates, and one Diff-Quik stained smear was obtained per condition and time point per biological replicate. For morphometric analysis, a total of 30 trophozoites per condition and time point were measured across the independent biological replicates and were selected by consecutive sampling during a predefined serpentine (zig-zag) scan across the preparation. Up to two eligible trophozoites per field (intact, well-focused and non-overlapping) were measured in sequential fields until n = 30 was reached, avoiding subjective selection of “representative” cells. Overlapping, partially visible, out-of-focus, edge-of-field, or debris-obscured trophozoites were excluded a priori. Trophozoites were photographed using a researcher’s mobile phone mounted to the microscope ocular. Calibration was performed at the same magnification using a stage micrometre and applied in ImageJ v. 1.54d. One Diff-Quik stained smear was obtained per condition/time point per biological replicate Cell length, cell width, cell surface, nuclear length, nuclear width, axoneme (only Giardia), and length of axostyle (only T. gallinae) were measured with ImageJ software, and the data were recorded in an Excel database for statistical analysis.\nThe Shapiro–Wilk test was used to assess the normality of the morphological variables. When data followed a normal distribution, Student’s t-test was applied; otherwise, non-parametric tests, such as the Mann–Whitney U test, was used. Values of p < 0.05 were considered significant. For the morphological analysis, the mean, standard deviation, median, and interquartile range were calculated using SPSS version 20 (IBM Corp., Armonk, NY, USA)."}, "[3]": {"conditions": "metronidazole 10 µg/mL, 0.5 and 48 h, control DMSO 1%"}}, "note": "Entries after “also recorded” stand apart in the source; their conditions may differ."}
{"molecule": "CC(C)=C1C/C=C(\\C)CC/C=C(\\C)CC1=O", "note": "[Compound 2, germacrone]", "values": [{"measurement": "CC50 at 48 h", "setting": "[1]", "result": "~100", "unit": "µg/mL"}, {"measurement": "axostyle length vs control", "setting": "T. gallinae trophozoites; [3]", "result": "decreased at 0.5 h; also recorded: after 48 h, it increased"}, {"measurement": "cell length vs control", "setting": "T. gallinae trophozoites; [3]", "result": "increase after 48 h"}, {"measurement": "cell surface area vs control", "setting": "T. gallinae trophozoites; [3]", "result": "decreased transiently at 0.5 h but increased at 48 h"}, {"measurement": "cell width vs control", "setting": "T. gallinae trophozoites; [3]", "result": "significant decrease exclusively in germacrone-treated parasites compared to the control at 0.5 h"}, {"measurement": "nuclear length vs control", "setting": "T. gallinae trophozoites; [3]", "result": "increased upon germacrone exposure"}, {"measurement": "nuclear width vs control", "setting": "T. gallinae trophozoites; [3]", "result": "diminished at 0.5 h; also recorded: By 48 h, nuclear width increased"}, {"measurement": "morphological changes (light microscopy)", "setting": "T. gallinae trophozoites; 48 h of exposure, Diff-Quik", "result": "elongation of the cytoplasm and the nucleus"}, {"measurement": "cell length vs control", "setting": "[2]; 0.5 and 48 h, control DMSO 1%", "result": "initial increase at 0.5 h but subsequently decreased at 48 h"}, {"measurement": "cell surface area vs control", "setting": "[2]; 0.5 and 48 h, control DMSO 1%", "result": "transiently increased at 0.5 h with no significant changes detected at 48 h"}, {"measurement": "cell width vs control", "setting": "[2]; 0.5 and 48 h, control DMSO 1%", "result": "increased significantly at both 0.5 and 48 h"}, {"measurement": "morphological changes (light microscopy)", "setting": "[2]; 48 h of exposure, Diff-Quik", "result": "less pronounced"}]}
